Assay [1] in a line: viability loss in HepG2 hepatoma cells – cell-based, ATP luminescence, cherry-pick, activator set 2, cytotoxicity control, dose response (AID 1053143). It is filed as functional.
Assay [2] can be described thus: Luminescence Cell-Based Dose Confirmation HTS to Identify Inhibitors of Platelet Dense Granule Release. [Related pubchem assays: 1663 (Primary HTS), 1678 (Summary of Project)]. It is filed as functional.
The target in assay [3] is Luciferin 4-monooxygenase (Photinus pyralis, UniProt P08659). Kind of assay: inhibition of purified Photinus pyralis luciferase – biochemical, luminescence, dose response (AID 1891).
A short description of assay [4]: NIH3T3 cell viability loss – ATP luminescence, mouse fibroblasts, counter-screen, dose response (AID 2010).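 Also: cells exposed to compound for about 90 hours before reading.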 It is filed as functional, cell-based. (The purpose of a counterscreen is to sort out artefacts and off-target activity.)
Assay [5] in a line: Trypanosoma cruzi growth suppression in host cells – NIH3T3 host cells, beta-gal luminescence, confirmation (AID 2044).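 Also: intracellular parasites grown in NIH/3T3 mouse fibroblasts as host cells; luminescent beta-galactosidase reporter signal from transgenic T. cruzi replicating inside host cells; inhibitors lower the luminescence signal.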 It is filed as functional, cell-based.
Assay [6] is described as follows: cells. It is filed as functional, cell-based. Conditions: HEK-CNG.
In assay [7] the test system is HEK293. Kind of assay: NOD2 signaling inhibitors in MDP-stimulated cells, cell-based, uHTS, luminescence (AID 2001). It is filed as functional. As to conditions: Homo sapiens.
Another assay deals with T1, Galanin receptor type 3 (Homo sapiens, UniProt O60755).
T1 sequence (O60755 whole entry): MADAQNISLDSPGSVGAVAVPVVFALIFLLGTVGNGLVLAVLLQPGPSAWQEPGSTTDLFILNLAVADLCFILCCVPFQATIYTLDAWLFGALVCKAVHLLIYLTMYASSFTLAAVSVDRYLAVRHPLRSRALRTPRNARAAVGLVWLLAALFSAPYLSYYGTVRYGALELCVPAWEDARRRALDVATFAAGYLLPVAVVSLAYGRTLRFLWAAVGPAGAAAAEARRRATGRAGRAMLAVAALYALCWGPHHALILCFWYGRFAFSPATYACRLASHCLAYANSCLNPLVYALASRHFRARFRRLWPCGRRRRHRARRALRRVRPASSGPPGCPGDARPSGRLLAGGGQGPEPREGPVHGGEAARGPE
Kind of assay: Fluorescence-based cell-based primary high throughput dose response assay to identify antagonists of the Galanin Receptor 3 (GalR3). It is filed as functional.

A short description of assay [8]: reduction of Shn3 3'UTR-driven luciferase in osteoblasts – cell-based, Clone20 osteoblasts, firefly luciferase, cherry-picked, dose response (AID 624132).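 Also: firefly luciferase luminescence from reporter carrying the Shn3 3'UTR in osteoblasts.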 It is filed as functional.
In assay [9] the test system is HEK293. Kind of assay: cells. It is filed as functional, cell-based. Conditions: Homo sapiens.
Assay [10] is described as follows: non-specific 3'UTR reporter inhibition in Clone20-Shn3RL – cell-based, Renilla luciferase, cherry-picked, counter-screen for Shn3 inhibitor project, dose response (AID 624133). It is filed as functional.
In assay [11] the target is COUP transcription factor 2 (Homo sapiens, UniProt P24468). The experiment in a line: Luminescence-based cell-based high throughput dose response assay to identify inhibitors of COUP-TFII (NR2F2). It is filed as functional.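 Also: HEK293 cells transiently cotransfected with COUP-TFII expression vector and reporter; luciferase reporter luminescence driven by COUP-TFII from the pX2-168 reporter plasmid.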
The nature of assay [12]: loss of viability in HepG2 cells – cell-based, CellTiter-Glo, cherry-picked, cytotoxicity control for Shn3 inhibitor project, dose response (AID 624134). It is filed as functional. For orientation: ATP-based viability assays read luminescence as a measure of living cells.
Assay [13] concerns HEK293. The experiment in a line: cells. It is filed as functional, cell-based. Conditions: Homo sapiens. The source holds these as a separate data set.
The subject of assay [14] is HEK293. The experiment in a line: inhibition of NOD1-driven NF-kB reporter – cell-based, luminescence, uHTS, primary screen (AID 1578). It is filed as functional. Conditions: Homo sapiens.
In the next assay the target is Kallikrein-7 (Homo sapiens, UniProt P49862). The experiment in a line: Fluorescence Intensity-based biochemical primary high throughput dose response assay to identify activators of kallikrein-7 (K7) zymogen.
A short description of assay [15]: cells.

Active and inactive are the calls of the source.

Chain of COUP transcription factor 2 (P24468 whole entry): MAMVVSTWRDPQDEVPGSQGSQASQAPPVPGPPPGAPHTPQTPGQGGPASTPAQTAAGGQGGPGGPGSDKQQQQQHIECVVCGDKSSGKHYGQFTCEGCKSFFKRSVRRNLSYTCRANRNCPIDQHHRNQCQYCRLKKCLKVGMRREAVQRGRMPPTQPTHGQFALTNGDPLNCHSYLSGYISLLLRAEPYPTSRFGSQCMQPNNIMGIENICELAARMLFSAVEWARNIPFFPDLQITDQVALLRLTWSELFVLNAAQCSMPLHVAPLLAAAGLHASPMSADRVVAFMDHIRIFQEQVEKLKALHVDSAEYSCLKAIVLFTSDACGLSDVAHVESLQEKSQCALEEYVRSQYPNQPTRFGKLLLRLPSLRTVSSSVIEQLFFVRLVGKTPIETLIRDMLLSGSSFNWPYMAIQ
Chain of Kallikrein-7 (P49862 whole entry): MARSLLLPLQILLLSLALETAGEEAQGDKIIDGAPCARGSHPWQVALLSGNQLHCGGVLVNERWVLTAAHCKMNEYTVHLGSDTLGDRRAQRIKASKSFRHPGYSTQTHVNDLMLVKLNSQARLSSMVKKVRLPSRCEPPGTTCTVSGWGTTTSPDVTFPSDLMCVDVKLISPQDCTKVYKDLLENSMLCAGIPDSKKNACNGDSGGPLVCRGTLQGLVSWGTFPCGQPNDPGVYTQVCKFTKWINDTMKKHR
Chain of Luciferin 4-monooxygenase (P08659 whole entry): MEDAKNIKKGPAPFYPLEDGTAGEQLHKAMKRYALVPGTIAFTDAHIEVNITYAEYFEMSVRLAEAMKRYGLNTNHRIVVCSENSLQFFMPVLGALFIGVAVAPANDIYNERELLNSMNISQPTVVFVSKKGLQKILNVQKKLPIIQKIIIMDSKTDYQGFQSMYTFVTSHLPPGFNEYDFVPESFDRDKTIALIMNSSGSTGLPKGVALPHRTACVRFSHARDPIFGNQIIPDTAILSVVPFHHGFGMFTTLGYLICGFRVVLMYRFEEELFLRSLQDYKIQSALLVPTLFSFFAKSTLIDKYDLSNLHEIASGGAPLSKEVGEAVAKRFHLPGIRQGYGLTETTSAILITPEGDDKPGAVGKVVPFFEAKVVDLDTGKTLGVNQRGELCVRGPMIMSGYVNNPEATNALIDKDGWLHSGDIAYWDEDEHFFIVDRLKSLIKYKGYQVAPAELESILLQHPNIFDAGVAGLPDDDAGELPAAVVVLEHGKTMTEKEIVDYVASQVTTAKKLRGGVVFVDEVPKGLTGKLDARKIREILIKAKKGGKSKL

The AC50 is the midpoint of the concentration-response curve, whichever way the signal moves. A word on the EC50: it is the concentration at which the effect is half-maximal. `Cc1cc(NC(=O)c2cccc(F)c2)ncc1NC(=O)c1ccco1`: the half-maximal activity concentration (AC50) in [1] is 26 µM (active). Further, the EC50 in assay [2] was 7.21 µM (active); in assay [3], 7.28 µM (active).

Take `CC1CCC(C(C)C)C(OC(=O)COC(=O)c2cc(O)ccc2N)C1` (stereo not drawn): the EC50 is > 60 µM (not active) in assay [4] and 4.92 µM (active) in assay [5]. In addition, in [1], the AC50 was 26 µM (active).

Broadly, the IC50 is the midpoint of a concentration-inhibition curve. For `O=C(Cc1ccc(Cl)cc1Cl)Nc1ccncc1Cl`, the EC50 in “cells [6]” was > 29.9 µM (inactive); in the assay with HEK293 [14], 3.7 µM (active). Also, the IC50 is 6.02 µM (active) in the assay on HEK293 [7]; 4.44 µM (active) on Galanin receptor type 3; 5.77 µM (active) with HEK293 [9]; 11.6 µM (inactive) in assay [11]; > 20 µM (inactive) with HEK293 [13]. Besides, the concentration at half-maximal activity (AC50) in assay [8] was 1.63 µM (active); in assay [10], 3.91 µM (active); in [12], 2.91 µM (active).

Take `CCCc1cc(NCCN(C)C)n2c(nc3ccccc32)c1C#N`: the EC50 at Kallikrein-7 is > 69.5 µM (inactive).

For the compound `Sc1nc2ccccc2n2c(S)nnc12`, in the assay “cells [15]”, the IC50 is > 138 µM (inactive).
